What follows are compounds tested on MDA MB 231 cells (assay: Antiproliferation assay in MDA MB 231 cells (Cell Titer Glo)). Settings: Homo sapiens, MDA-MB-231, 216 h, MDAMB231 cell line, 9 day treatment, racemic compounds (Table 2).
Type: cell-based
Description: Antiproliferation Assay in MDA MB 231 Cells MDA MB 231 cells were seeded in 96 well plate at a seeding density of 250 cells/well. The cells were allowed to settle overnight under standard incubator conditions (37° C., 5% CO2). Next day treatment with increasing dose of test compounds and reference compounds were done to the respective wells and the cells were further incubated under standard cell culture conditions for another 4 days. On the 5th day, media was replenished with fresh treatment and cells were incubated for a total of 9 day treatment period. On the day of termination, appropriate volume of Cell Titer Glo reagent was added to the treatment (and control) wells and the plates were kept on a plate shaker @300 RPM for 15 min. Luminiscence reading (RLU) was […] RLU is directly proportional to ATP content and is directly related to number of metabolically active cells in the respective well. Calculation: a. Blank Correction: RLU of the Wells Containing No Cells is Considered as Blank and Subtracted from all RLU of the Treated and Control Wells [formula]

Question: Which inhibition at 10 µM does the source give for `CCC(=O)N1N=C(c2c(C)c3cccnc3[nH]c2=O)CC1c1ccc(OC)cc1` (stereo not drawn) [Example 13, 3-(5-(4-Methoxyphenyl)-1-propionyl-4,5-dihydro-1H-pyrazol-3-yl)-4-methyl-1,8-naphthyridin-2(1H)-one] here?
Answer: ≥ 50%

Question: For `CCC(=O)N1N=C(c2c(C)c3cncnc3[nH]c2=O)CC1c1ccc(OC)cc1` (stereo not drawn) [Example 14, 6-(5-(4-Methoxyphenyl)-1-propionyl-4,5-dihydro-1H-pyrazol-3-yl)-5-methylpyrido-[2,3-d]pyrimidin-7(8H)-one], which inhibition at 10 µM is on record?
Answer: < 50%

Question: `CCC(=O)N1N=C(c2c(C)c3cc(Br)ccc3[nH]c2=O)CC1c1ccc(OC)cc1` (stereo not drawn) [Example 15, 6-bromo-3-(5-(4-methoxyphenyl)-1-propionyl-4,5-dihydro-1H-pyrazol-3-yl)-4-methylquinolin-2(1H)-one] was tested. Which inhibition at 10 µM did it give?
Answer: ≥ 50%

Question: Which inhibition at 10 µM does the source give for `CCC(=O)N1N=C(c2c(C)c3nc(Cl)ccc3[nH]c2=O)CC1c1ccc(OC)cc1` (stereo not drawn) [Example 16, 6-chloro-3-(5-(4-methoxyphenyl)-1-propionyl-4,5-dihydro-1H-pyrazol-3-yl)-4-methyl-1,5-naphthyridin-2(1H)-one] here?
Answer: ≥ 50%

Question: For `CCC(=O)N1N=C(c2cc3cc(Cl)ccc3[nH]c2=O)CC1c1ccc(OC)cc1` (stereo not drawn) [Example 17, 6-Chloro-3-(5-(4-methoxyphenyl)-1-propionyl-4,5-dihydro-1H-pyrazol-3-yl)quinolin-2(1H)-one], which inhibition at 10 µM is on record?
Answer: ≥ 50%

Question: How did the inhibition at 10 µM turn out when `CCC(=O)N1N=C(c2c(C)c3cc(Cl)ccc3n(C)c2=O)CC1c1ccc(OC)cc1` (stereo not drawn) [Example 18, 6-chloro-3-(5-(4-methoxyphenyl)-1-propionyl-4,5-dihydro-1H-pyrazol-3-yl)-1,4-dimethylquinolin-2(1H)-one] was run?
Answer: < 50%

Question: With `CCC(=O)N1N=C(c2c(=O)[nH]cc3ccccc23)CC1c1ccc(OC)cc1` (stereo not drawn) [Example 19, 4-(5-(4-methoxyphenyl)-1-propionyl-4,5-dihydro-1H-pyrazol-3-yl)isoquinolin-3(2H)-one] as the compound, how does the inhibition at 10 µM read?
Answer: < 50%

Question: `CCC(=O)N1N=C(c2c(C)c3ccsc3[nH]c2=O)CC1c1ccc(OC)nc1` (stereo not drawn) [Example 21, 5-(5-(6-methoxypyridin-3-yl)-1-propionyl-4,5-dihydro-1H-pyrazol-3-yl)-4-methylthieno[2,3-b]pyridin-6(7H)-one] was tested. Which inhibition at 10 µM did it give?
Answer: ≥ 50%

Question: How did the inhibition at 10 µM turn out when `CCC(=O)N1N=C(c2cc3ccsc3[nH]c2=O)CC1c1ccc(OC)cc1` (stereo not drawn) [Example 22, 5-(5-(4-methoxyphenyl)-1-propionyl-4,5-dihydro-1H-pyrazol-3-yl)thieno[2,3-b]pyridin-6(7H)-one] was run?
Answer: ≥ 50%

Question: For `CCC(=O)N1N=C(c2c(C3CC3)c3cc(Cl)ccc3[nH]c2=O)CC1c1ccc(OC)cc1` (stereo not drawn) [Example 23, 6-chloro-4-cyclopropyl-3-(5-(4-methoxyphenyl)-1-propionyl-4,5-dihydro-1H-pyrazol-3-yl)quinolin-2(1H)-one], which inhibition at 10 µM is on record?
Answer: ≥ 50%

Question: Which inhibition at 10 µM does the source give for `CCC(=O)N1N=C(c2c(C)c3cc(Cl)ccc3[nH]c2=O)CC1c1cn(C)c2ccccc12` (stereo not drawn) [Example 24, 6-chloro-4-methyl-3-(5-(1-methyl-1H-indol-3-yl)-1-propionyl-4,5-dihydro-1H-pyrazol-3-yl)quinolin-2(1H)-one] here?
Answer: ≥ 50%

Question: How did the inhibition at 10 µM turn out when `CCC(=O)N1N=C(c2c(C)c3ccsc3[nH]c2=O)CC1c1ccc(OC)cn1` (stereo not drawn) [Example 25, 5-(5-(5-methoxypyridin-2-yl)-1-propionyl-4,5-dihydro-1H-pyrazol-3-yl)-4-methylthieno[2,3-b]pyridin-6(7H)-one] was run?
Answer: < 50%

Question: `CCC(=O)N1N=C(c2c(C)c3ccsc3[nH]c2=O)CC1c1ccc(=O)[nH]c1` (stereo not drawn) [Example 26, 4-methyl-5-(5-(6-oxo-1,6-dihydropyridin-3-yl)-1-propionyl-4,5-dihydro-1H-pyrazol-3-yl)thieno[2,3-b]pyridin-6(7H)-one] was tested. Which inhibition at 10 µM did it give?
Answer: < 50%

Question: How did the inhibition at 10 µM turn out when `CCC(=O)N1N=C(c2c(C)c3ccsc3[nH]c2=O)CC1c1ccc(OC)s1` (stereo not drawn) [Example 29, 5-(5-(5-methoxythiophen-2-yl)-1-propionyl-4,5-dihydro-1H-pyrazol-3-yl)-4-methylthieno[2,3-b]pyridin-6(7H)-one] was run?
Answer: ≥ 50%

Question: How did the inhibition at 10 µM turn out when `CCC(=O)N1N=C(c2c(C)c3ccsc3[nH]c2=O)CC1c1cnc(OC)s1` (stereo not drawn) [Example 30, 5-(5-(2-methoxythiazol-5-yl)-1-propionyl-4,5-dihydro-1H-pyrazol-3-yl)-4-methylthieno[2,3-b]pyridin-6(7H)-one] was run?
Answer: ≥ 50%

Question: With `CCC(=O)N1N=C(c2c(C)c3ccsc3[nH]c2=O)CC1c1csc(Br)c1` (stereo not drawn) [Example 31, 5-(5-(5-bromothiophen-3-yl)-1-propionyl-4,5-dihydro-1H-pyrazol-3-yl)-4-methylthieno[2,3-b]pyridin-6(7H)-one] as the compound, how does the inhibition at 10 µM read?
Answer: < 50%

Question: Which inhibition at 10 µM does the source give for `CCC(=O)N1N=C(c2c(C)c3ccsc3[nH]c2=O)CC1c1ccccc1` (stereo not drawn) [Example 32, 4-methyl-5-(5-phenyl-1-propionyl-4,5-dihydro-1H-pyrazol-3-yl)thieno[2,3-b]pyridin-6(7H)-one] here?
Answer: < 50%

Question: How did the inhibition at 10 µM turn out when `CCC(=O)N1N=C(c2c(C)c3ccsc3[nH]c2=O)CC1c1cc(Br)cs1` (stereo not drawn) [Example 34, 5-(5-(4-bromothiophen-2-yl)-1-propionyl-4,5-dihydro-1H-pyrazol-3-yl)-4-methylthieno[2,3-b]pyridin-6(7H)-one] was run?
Answer: < 50%

Question: How did the inhibition at 10 µM turn out when `CCC(=O)N1N=C(c2c(C)c3ccsc3[nH]c2=O)CC1c1ccncc1` (stereo not drawn) [Example 35, 4-methyl-5-(1-propionyl-5-(pyridin-4-yl)-4,5-dihydro-1H-pyrazol-3-yl)thieno[2,3-b]pyridin-6(7H)-one] was run?
Answer: < 50%

Question: For `CCC(=O)N1N=C(c2c(C)c3ccsc3[nH]c2=O)CC1c1cccnc1` (stereo not drawn) [Example 36, 4-methyl-5-(1-propionyl-5-(pyridin-3-yl)-4,5-dihydro-1H-pyrazol-3-yl)thieno[2,3-b]pyridin-6(7H)-one], which inhibition at 10 µM is on record?
Answer: < 50%

Question: `CCC(=O)N1N=C(c2c(C)c3ccsc3[nH]c2=O)CC1c1ccc(N2CCN(C)CC2)cc1` (stereo not drawn) [Example 38, 4-methyl-5-(5-(4-(4-methylpiperazin-1-yl)phenyl)-1-propionyl-4,5-dihydro-1H-pyrazol-3-yl)thieno[2,3-b]pyridin-6(7H)-one] was tested. Which inhibition at 10 µM did it give?
Answer: ≥ 50%

Question: Which inhibition at 10 µM does the source give for `CCC(=O)N1N=C(c2c(C)c3ccsc3[nH]c2=O)CC1c1ccc(N(C)C)cc1` (stereo not drawn) [Example 39, 5-(5-(4-(dimethylamino)phenyl)-1-propionyl-4,5-dihydro-1H-pyrazol-3-yl)-4-methylthieno[2,3-b]pyridin-6(7H)-one] here?
Answer: ≥ 50%

Question: `CCC(=O)N1N=C(c2c(C)c3c(Cl)csc3[nH]c2=O)CC1c1ccc(OC)cc1` (stereo not drawn) [Example 40, 3-chloro-5-(5-(4-methoxyphenyl)-1-propionyl-4,5-dihydro-1H-pyrazol-3-yl)-4-methylthieno[2,3-b]pyridin-6(7H)-one] was tested. Which inhibition at 10 µM did it give?
Answer: < 50%

Question: Which inhibition at 10 µM does the source give for `CCC(=O)N1N=C(c2c(C)c3ccsc3[nH]c2=O)CC1c1ccc(C)s1` (stereo not drawn) [Example 41, 5-(5-(5-methylthiophen-2-yl)-1-propionyl-4,5-dihydro-1H-pyrazol-3-yl)-4-methylthieno[2,3-b]pyridin-6(7H)-one] here?
Answer: ≥ 50%

Question: How did the inhibition at 10 µM turn out when `CCC(=O)N1N=C(c2c(C)c3ccsc3[nH]c2=O)CC1c1ccc(C(F)(F)F)cc1` (stereo not drawn) [Example 42, 4-methyl-5-(1-propionyl-5-(4-(trifluoromethyl)phenyl)-4,5-dihydro-1H-pyrazol-3-yl)thieno[2,3-b]pyridin-6(7H)-one] was run?
Answer: ≥ 50%

Question: How did the inhibition at 10 µM turn out when `CCC(=O)N1N=C(c2c(C)c3ccsc3[nH]c2=O)CC1c1ccc(C(F)F)cc1` (stereo not drawn) [Example 43, 5-(5-(4-(difluoromethyl)phenyl)-1-propionyl-4,5-dihydro-1H-pyrazol-3-yl)-4-methylthieno[2,3-b]pyridin-6(7H)-one] was run?
Answer: ≥ 50%

Question: For `CCC(=O)N1N=C(c2c(C)c3ccsc3[nH]c2=O)CC1c1ccc(CC)cc1` (stereo not drawn) [Example 44, 5-(5-(4-ethylphenyl)-1-propionyl-4,5-dihydro-1H-pyrazol-3-yl)-4-methylthieno[2,3-b]pyridin-6(7H)-one], which inhibition at 10 µM is on record?
Answer: ≥ 50%

Question: Which inhibition at 10 µM does the source give for `CCC(=O)N1N=C(c2c(C)c3ccsc3[nH]c2=O)CC1c1ccc(N2CCCC2)cc1` (stereo not drawn) [Example 46, 4-methyl-5-(1-propionyl-5-(4-(pyrrolidin-1-yl)phenyl)-4,5-dihydro-1H-pyrazol-3-yl)thieno[2,3-b]pyridin-6(7H)-one] here?
Answer: ≥ 50%

Question: With `CCC(=O)N1N=C(c2c(C)c3ccsc3[nH]c2=O)CC1c1ccc(C2CC2)cc1` (stereo not drawn) [Example 47, 5-(5-(4-cyclopropylphenyl)-1-propionyl-4,5-dihydro-1H-pyrazol-3-yl)-4-methylthieno[2,3-b]pyridin-6(7H)-one] as the compound, how does the inhibition at 10 µM read?
Answer: < 50%

Question: Which inhibition at 10 µM does the source give for `CCC(=O)N1N=C(c2c(C)c3ccsc3[nH]c2=O)CC1c1csc(C)n1` (stereo not drawn) [Example 48, 4-methyl-5-(5-(2-methylthiazol-4-yl)-1-propionyl-4,5-dihydro-1H-pyrazol-3-yl)thieno[2,3-b]pyridin-6(7H)-one] here?
Answer: < 50%

Question: With `CCC(=O)N1N=C(c2c(C)c3ccsc3[nH]c2=O)CC1c1ccc(C(C)C)cc1` (stereo not drawn) [Example 49, 5-(5-(4-isopropylphenyl)-1-propionyl-4,5-dihydro-1H-pyrazol-3-yl)-4-methylthieno[2,3-b]pyridin-6(7H)-one] as the compound, how does the inhibition at 10 µM read?
Answer: < 50%

Question: `CCC(=O)N1N=C(c2c(C)c3ccsc3[nH]c2=O)CC1c1cnc(C)cc1C` (stereo not drawn) [Example 50, 5-(5-(4,6-dimethylpyridin-3-yl)-1-propionyl-4,5-dihydro-1H-pyrazol-3-yl)-4-methylthieno[2,3-b]pyridin-6(7H)-one] was tested. Which inhibition at 10 µM did it give?
Answer: < 50%

Question: Which inhibition at 10 µM does the source give for `CCC(=O)N1N=C(c2c(C)c3ccsc3[nH]c2=O)CC1c1cnc(C)nc1` (stereo not drawn) [Example 51, 4-methyl-5-(5-(2-methylpyrimidin-5-yl)-1-propionyl-4,5-dihydro-1H-pyrazol-3-yl)thieno[2,3-b]pyridin-6(7H)-one] here?
Answer: < 50%

Source: patent US20250145601A1, “NOVEL BICYCLIC COMPOUNDS AS RAD51 INHIBITORS” (SATYA THERAPEUTICS, INC., priority 2022, published 2025)
